Results reported in patent US20050245563A1 (Millennium Pharmaceuticals, Inc., priority 2003, published 2005).
Counter-ions that a name gives are not always drawn.

Target: T1, human Chk1 (GST-Chk1) (Homo sapiens, UniProt O14757)
T1 construct: made in house; host or cells: insect cells (baculovirus, Bac-to-Bac)
T1 sequence (O14757 1-476): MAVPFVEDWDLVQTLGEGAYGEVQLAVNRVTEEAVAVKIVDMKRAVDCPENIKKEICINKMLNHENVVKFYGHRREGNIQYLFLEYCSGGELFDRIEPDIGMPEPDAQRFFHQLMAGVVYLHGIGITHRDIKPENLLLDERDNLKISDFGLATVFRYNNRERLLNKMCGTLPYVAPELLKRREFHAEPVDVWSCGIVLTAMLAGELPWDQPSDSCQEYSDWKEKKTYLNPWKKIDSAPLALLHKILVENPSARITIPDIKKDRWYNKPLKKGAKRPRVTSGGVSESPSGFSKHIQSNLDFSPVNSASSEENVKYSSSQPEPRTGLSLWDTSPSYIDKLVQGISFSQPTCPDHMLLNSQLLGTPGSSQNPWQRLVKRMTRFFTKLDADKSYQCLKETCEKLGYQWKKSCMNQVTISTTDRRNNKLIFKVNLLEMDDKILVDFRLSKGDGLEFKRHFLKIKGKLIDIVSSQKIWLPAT
Assay: Chk1 FlashPlate kinase assay
Format: biochemical
Conditions: 8.7 nM GST-Chk1, 1 uM ATP, 33P incorporation into peptide substrate
Description: Recombinant human Chk1 was expressed as a fusion protein with glutathione S-transferase at the amino-terminus (GST-Chk1) using standard baculovirus vectors and (Bac-to-Bac®) insect cell expression system purchased from GIBCO™ Invitrogen. Recombinant protein expressed in insect cells was purified using glutathione sepharose (Amersham Biotech) using standard procedures described by the manufacturer.
Chk1 FlashPlate® Kinase Assay:
Assays (25 μL) contained 8.7 nM GST-Chk1, 10 mM MES, 0.1 mM ethylene glycol-bis(β-aminoethylether)-N,N,N′,N′-tetracetic acid (EGTA, pH 8.0), 2 mM DTT, 0.05% Tween 20, 3 uM peptide substrate (Biotin-ILSRRPSYRKILND-free acid) (SEQ ID NO: 1), 1 uM ATP, 0.4 uCi ^33P-γ-ATP (NEN), 4% DMSO. Reactions were incubated for 30 minutes at room temperature, terminated with 50 μL of 50 mM EDTA and 90 μL were transferred to streptavidin-coated FlashPlates® (NEN) and incubated for 1 hour at room temperature. Plates were washed with phosphate buffered salaine containing 0.01% Tween-20 and 10 mM sodium pyrophosphate. Plates were dried, sealed with Topseal™ (NEN) and amount of ^33P incorporated into the peptide substate measure using a Packard Topcount® NXT™ scintillation counter with standard settings.

Compared with `Cc1n[nH]c2c1c(=O)n(CCNC(=O)OC(C)(C)C)c1ccccc21` [Example 1, [2-(3-Methyl-4-oxo-1,4-dihydro-pyrazolo[4,3-c]quinolin-5-yl)-ethyl]-carbamic acid tert-butyl ester], `Cc1n[nH]c2c1c(=O)n(CCCNC(=O)OC(C)(C)C)c1ccccc21` [Example 6, [3-(3-Methyl-4-oxo-1,4-dihydro-pyrazolo[4,3-c]quinolin-5-yl)-propyl]-carbamic acid tert-butyl ester] is lower in IC50: 1000 to 20000 nM for the first, less than 1000 nM for the second. The second is the more potent here.

Compared with `Cc1n[nH]c2c1c(=O)n(Cc1cccnc1)c1ccccc21` [Example 2, 3-Methyl-5-pyridin-3-ylmethyl-1,5-dihydro-pyrazolo[4,3-c]quinolin-4-one], `Cc1n[nH]c2c1c(=O)n(CC(N)Cc1ccccc1)c1ccccc21` (stereo not drawn) [Example 23, 5-(2-Amino-3-phenyl-propyl)-3-methyl-1,5-dihydro-pyrazolo[4,3-c]quinolin-4-one] is higher in IC50: 1000 to 20000 nM for the first, greater than 20000 nM for the second.

First: CC(=O)OCCn1c(=O)c2c(C)n[nH]c2c2ccccc21 [Example 3, Acetic acid 2-(3-methyl-4-oxo-1,4-dihydro-pyrazolo[4,3-c]quinolin-5-yl)-ethyl ester]
Second: Cc1n[nH]c2c1c(=O)n(CCO)c1ccccc21 [Example 10, 5-(2-Hydroxy-ethyl)-3-methyl-1,5-dihydro-pyrazolo[4,3-c]quinolin-4-one]
The IC50 of the first is higher: 1000 to 20000 nM for the first, less than 1000 nM for the second.

`Cc1n[nH]c2c1c(=O)n(CCNCc1ccccc1)c1ccccc21` [Example 4, 5-(2-Benzylamino-ethyl)-3-methyl-1,5-dihydro-pyrazolo[4,3-c]quinolin-4-one] and `Cc1n[nH]c2c1c(=O)n(CCCNCc1ccccc1)c1ccccc21` [Example 5, 5-(3-Benzylamino-propyl)-3-methyl-1,5-dihydro-pyrazolo[4,3-c]quinolin-4-one] cannot be ordered by IC50: less than 1000 nM for the first, less than 1000 nM for the second.

First: Cc1n[nH]c2c1c(=O)n(CCN(C)C)c1ccccc21 [Example 7, 5-(2-Dimethylamino-ethyl)-3-methyl-1,5-dihydro-pyrazolo[4,3-c]quinolin-4-one hydrochloride]
Second: Cc1n[nH]c2c1c(=O)n(CCN)c1ccccc21 [Example 11, 5-(2-Amino-ethyl)-3-methyl-1,5-dihydro-pyrazolo[4,3-c]quinolin-4-one]
The IC50 of the first is higher: 1000 to 20000 nM for the first, less than 1000 nM for the second. The second is the more potent here.

Compared with `Cc1n[nH]c2c1c(=O)n(CCN1CCOCC1)c1ccccc21` [Example 8, 3-Methyl-5-(2-morpholin-4-yl-ethyl)-1,5-dihydro-pyrazolo[4,3-c]quinolin-4-one], `Cc1n[nH]c2c1c(=O)n(CCCO)c1ccccc21` [Example 14, 5-(3-Hydroxy-propyl)-3-methyl-1,5-dihydro-pyrazolo[4,3-c]quinolin-4-one] is lower in IC50: 1000 to 20000 nM for the first, less than 1000 nM for the second.

`Cc1n[nH]c2c1c(=O)n(CCCN1CCc3ccccc3C1)c1ccccc21` [Example 9, 5-[3-(3,4-Dihydro-1H-isoquinolin-2-yl)-propyl]-3-methyl-1,5-dihydro-pyrazolo[4,3-c]quinolin-4-one] and `Cc1n[nH]c2c1c(=O)n(CCCOCc1ccccc1)c1ccccc21` [Example 12, 5-(3-Benzyloxy-propyl)-3-methyl-1,5-dihydro-pyrazolo[4,3-c]quinolin-4-one] cannot be ordered by IC50: less than 1000 nM for the first, less than 1000 nM for the second.

`Cc1n[nH]c2c1c(=O)n(CCCNC(=O)OCc1ccccc1)c1ccccc21` [Example 13, [3-(3-Methyl-4-oxo-1,4-dihydro-pyrazolo[4,3-c]quinolin-5-yl)-propyl]-carbamic acid benzyl ester] and `Cc1n[nH]c2c1c(=O)n(CCCN)c1ccccc21` [Example 15, 5-(3-Amino-propyl)-3-methyl-1,5-dihydro-pyrazolo[4,3-c]quinolin-4-one] cannot be ordered by IC50: less than 1000 nM for the first, less than 1000 nM for the second.

`Cc1[nH]nc2c1c(=O)n(CCCN(C)C)c1ccc(Cl)cc21` [Example 16, 8-Chloro-5-(3-dimethylamino-propyl)-3-methyl-2,5-dihydro-pyrazolo[4,3-c]quinolin-4-one] and `Cc1[nH]nc2c1c(=O)n(CCCN(C)C)c1ccc(Br)cc21` [Example 18, 8-Bromo-5-(3-dimethylamino-propyl)-3-methyl-2,5-dihydro-pyrazolo[4,3-c]quinolin-4-one] cannot be ordered by IC50: less than 1000 nM for the first, less than 1000 nM for the second.

`COC(=O)CCCn1c(=O)c2c(C)n[nH]c2c2cc(Br)ccc21` [Example 17, 4-(8-Bromo-3-methyl-4-oxo-1,4-dihydro-pyrazolo[4,3-c]quinolin-5-yl)-butyric acid methyl ester] and `Cc1n[nH]c2c1c(=O)n(CCCC(=O)O)c1ccc(Br)cc21` [Example 19, 4-(8-Bromo-3-methyl-4-oxo-1,4-dihydro-pyrazolo[4,3-c]quinolin-5-yl)-butyric acid] cannot be ordered by IC50: less than 1000 nM for the first, less than 1000 nM for the second.

`Cc1[nH]nc2c1c(=O)n(CCCC#N)c1ccc(Br)cc21` [Example 20, 4-(8-Bromo-3-methyl-4-oxo-2,4-dihydro-pyrazolo[4,3-c]quinolin-5-yl)-butyronitrile] and `Cc1[nH]nc2c1c(=O)n(CCCN)c1ccc(Cl)cc21` [Example 32, 5-(3-Amino-propyl)-8-chloro-3-methyl-1,5-dihydro-pyrazolo[4,3-c]quinolin-4-one] cannot be ordered by IC50: less than 1000 nM for the first, less than 1000 nM for the second.

First: Cc1n[nH]c2c1c(=O)n(CCCC(=O)N1CCN(C(=O)OC(C)(C)C)CC1)c1ccc(Br)cc21 [Example 21, 4-[4-(8-Bromo-3-methyl-4-oxo-1,4-dihydro-pyrazolo[4,3-c]quinolin-5-yl)-butyryl]-piperazine-1-carboxylic acid tert-butyl ester]
Second: Cc1n[nH]c2c1c(=O)n(CC1CCCN(C(=O)OC(C)(C)C)C1)c1ccc(Br)cc21 (stereo not drawn) [Example 30, 3-(8-Bromo-3-methyl-4-oxo-1,4-dihydro-pyrazolo[4,3-c]quinolin-5-ylmethyl)-piperidine-1-carboxylic acid tert-butyl ester]
The IC50 of the first is lower: less than 1000 nM for the first, 1000 to 20000 nM for the second.

`Cc1n[nH]c2c1c(=O)n(CCCC(=O)NCc1ccc(Cl)cc1)c1ccc(Br)cc21` [Example 22, 4-(8-Bromo-3-methyl-4-oxo-1,4-dihydro-pyrazolo[4,3-c]quinolin-5-yl)-N-(4-chloro-benzyl)-butyramide] and `Cc1n[nH]c2c1c(=O)n(CCCCNC(=O)OC(C)(C)C)c1ccc(Br)cc21` [Example 29, [4-(8-Bromo-3-methyl-4-oxo-1,4-dihydro-pyrazolo[4,3-c]quinolin-5-yl)-butyl]-carbamic acid tert-butyl ester] cannot be ordered by IC50: less than 1000 nM for the first, less than 1000 nM for the second.

First: Cc1[nH]nc2c1c(=O)[nH]c1c(OCCCNC(=O)OC(C)(C)C)cccc12 [Example 24, [3-(3-Methyl-4-oxo-4,5-dihydro-2H-pyrazolo[4,3-c]quinolin-6-yloxy)-propyl]-carbamic acid tert-butyl ester]
Second: Cc1[nH]nc2c1c(=O)[nH]c1c(OCCCN)cccc12 [Example 25, 6-(3-Amino-propoxy)-3-methyl-2,5-dihydro-pyrazolo[4,3-c]quinolin-4-one]
The IC50 of the first is higher: greater than 20000 nM for the first, 1000 to 20000 nM for the second.

Work on `Cc1n[nH]c2c1c(=O)n(CCCNC(=O)OC(C)(C)C)c1ccc(Cl)cc21` [Example 31, [3-(8-Chloro-3-methyl-4-oxo-1,4-dihydro-pyrazolo[4,3-c]quinolin-5-yl)-propyl]-carbamic acid tert-butyl ester] yielded an IC50 of less than 1000 nM.

Target: T1, human Chk1 (GST-Chk1)
Assay: Chk1 DELFIA kinase assay (2 nM GST-Chk1, 600 μM ATP)
Format: biochemical
Conditions: Biotin-GLYRSPSMPEN-amide substrate
How it was run: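 Enzyme is N-terminal GST-Chk1 from baculovirus/insect cells, assayed with 1 μM biotin-GLYRSPSMPEN-amide in pH 7.5 Tris buffer, 4% DMSO and 10 mM MgCl2 for 50 min at room temperature. EDTA-stopped reactions were captured on NeutrAvidin. Phospho-peptide was detected by anti-phospho-Ser216-Cdc25c antibody with europium-labeled secondary and time-resolved fluorescence.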

`Cc1[nH]nc2c1c(=O)n(CCCN)c1cc(C(=O)NCCc3cccnc3)ccc21` [Example 366, 5-(3-Amino-propyl)-3-methyl-4-oxo-4,5-dihydro-2H-pyrazolo[4,3-c]quinoline-7-carboxylic acid (2-pyridin-3-yl-ethyl)-amide] and `CCN(CC)CCC(=O)Nc1ccc2c(c1)c1n[nH]c(C)c1c(=O)n2CCCN` [Example 368, N-[5-(3-Amino-propyl)-3-methyl-4-oxo-4,5-dihydro-2H-pyrazolo[4,3-c]quinolin-8-yl]-3-diethylamino-propionamide] cannot be ordered by IC50: less than 1000 nM for the first, less than 1000 nM for the second.

`Cc1[nH]nc2c1c(=O)n(C)c1c(CCCO)cc(Cl)cc21` [Example 367, 8-Chloro-6-(3-hydroxy-propyl)-3,5-dimethyl-2,5-dihydro-pyrazolo[4,3-c]quinolin-4-one] and `Cc1[nH]nc2c1c(=O)n(CCCN)c1ccc(NC(=O)CCN3CCCCC3)cc21` [Example 369, N-[5-(3-Amino-propyl)-3-methyl4-oxo-4,5-dihydro-2H-pyrazolo[4,3-c]quinolin-8-yl]-3-piperidin-1-yl-propionamide] cannot be ordered by IC50: less than 1000 nM for the first, less than 1000 nM for the second.
